The experiment deals with T1, human 11β-HSD1 (Homo sapiens, UniProt P28845).
T1 construct: expressed in transfected cells; host or cells: CHO cells (microsomes)
The experiment is described as follows: Inhibition of microsomal preparation of 11β-HSD1 (SPA, Biological Test Example 1). The format is biochemical. The following applies: for IC50: microsomes from CHO cells overexpressing human 11β-HSD1, read-out: IC50 Range. As for the experimental part:
The inhibition of microsomal preparation of 11β-HSD1 by compounds of the invention was measured essentially as previously described (K. Solly, S. S. Mundt, H. J. Zokian, G. J. Ding, A. Hermanowski-Vosatka, B. Strulovici, and W. Zheng, High-Throughput Screening of 11-Beta-Hydroxysteroid Dehydrogenase Type 1 in Scintillation Proximity Assay Format. Assay Drug Dev Technol 3 (2005) 377-384). All reactions were carried out at rt in 96 well clear flexible PET Microbeta plates (PerkinElmer). The assay begins by dispensing 49 μl of substrate solution (50 mM HEPES, pH 7.4, 100 mM KCl, 5 mM NaCl, 2 mM MgCl2, 2 mM NADPH and 160 nM [^3H]cortisone (1 Ci/mmol)) and mixing in 1 μL of the test compounds in DMSO previously diluted in half-log increments (8 points) starting at 0.1 mM. After a 10 minute pre-incubation, 50 μL of enzyme solution containing microsomes isolated from CHO cells overexpressing human 11β-HSD1 (10-20 μg/ml of total protein) was added, and the plates were incubated for 90 minutes at rt. The reaction was stopped by adding 50 μl of the SPA beads suspension containing 10 μM 18β-glycyrrhetinic acid, 5 mg/ml protein A coated YSi SPA beads (GE Healthcare) and 3.3 μg/ml of anti-cortisol antibody (East Coast Biologics) in Superblock buffer (Bio-Rad). The plates were shaken for 120 minutes at rt, and the SPA signal corresponding to [^3H]cortisol was measured on a Microbeta plate reader.

T1 sequence (P28845 whole entry): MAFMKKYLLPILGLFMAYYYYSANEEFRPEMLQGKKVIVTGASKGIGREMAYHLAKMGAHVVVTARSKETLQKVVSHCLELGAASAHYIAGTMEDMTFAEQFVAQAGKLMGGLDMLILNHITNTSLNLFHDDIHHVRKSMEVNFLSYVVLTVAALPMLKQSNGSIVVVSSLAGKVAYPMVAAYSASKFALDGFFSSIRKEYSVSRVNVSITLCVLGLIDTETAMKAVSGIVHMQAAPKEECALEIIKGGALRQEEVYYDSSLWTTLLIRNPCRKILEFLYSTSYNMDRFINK

In the case of `O=C(O)CC1CC2(CCN(C(=O)/C=C/c3ccccc3C(F)(F)F)CC2)c2cc(F)ccc21` (racemic) [EXAMPLE 11, (±)-(E)-2-(6-fluoro-1′-(3-(2-(trifluoromethyl)phenyl)acryloyl)-2,3-dihydrospiro[indene-1,4′-piperidine]-3-yl)acetic acid], the IC50 (commonly the concentration that gives 50% inhibition) was less than 0.1 µM. For the same compound, under “111 nM”, testing at 0.111 µM gave an inhibition of 75.1%.

As for `Cc1ccc2c(c1)C(CC(=O)O)CC21CCN(C(=O)/C=C/c2ccccc2C(F)(F)F)CC1` (racemic) [EXAMPLE 12, (±)-(E)-2-(5-methyl-1′-(3-(2-(trifluoromethyl)phenyl)acryloyl)-2,3-dihydrospiro[indene-1,4′-piperidine]-3-yl)acetic acid], the IC50 was less than 0.1 µM. Where the note is “111 nM”, the inhibition (usually how much of the control response was suppressed) at 0.111 µM was found to be 90.3%.

Regarding `NC(=O)CC1CC2(CCN(C(=O)/C=C/c3ccccc3C(F)(F)F)CC2)c2c(Br)cccc21` (racemic) [EXAMPLE 13, (±)-(E)-2-(7-bromo-1′-(3-(2-(trifluoromethyl)phenyl)acryloyl)-2,3-dihydrospiro[indene-1,4′-piperidine]-3-yl)acetamide], the IC50 was less than 0.1 µM. Under “100 nM”, this compound showed an inhibition at 0.1 µM of 94.6%. For the same compound, 0.111 µM produced 94.8% inhibition (111 nM).

Turning to `NC(=O)CC1CC2(CCN(C(=O)/C=C/c3ccccc3C(F)(F)F)CC2)c2cc(F)ccc21` (racemic) [EXAMPLE 14, (±)-(E)-2-(6-fluoro-1′-(3-(2-(trifluoromethyl)phenyl)acryloyl)-2,3-dihydrospiro[indene-1,4′-piperidine]-3-yl)acetamide], the IC50 was less than 0.1 µM. Besides, where the note is “100 nM”, the inhibition at 0.1 µM came to 85.6%. The compound also displayed an inhibition at 0.111 µM (111 nM) of 90.9%.

Regarding `O=C(/C=C/c1ccccc1C(F)(F)F)N1CCC2(CC1)CC(O)c1cccc(Br)c12` (racemic) [EXAMPLE 16, (±)-(E)-1-(7-bromo-3-hydroxy-2,3-dihydrospiro[indene-1,4′-piperidine]-1′-yl)-3-(2-(trifluoromethyl)phenyl)prop-2-en-1-one], the IC50 was less than 0.1 µM. At 0.1 µM the inhibition (100 nM) was 95.3%. This compound also yielded an inhibition at 0.111 µM (111 nM) of 98.6%.

Regarding `NC1CC2(CCN(C(=O)/C=C/c3ccccc3C(F)(F)F)CC2)c2c(Br)cccc21` (racemic) [EXAMPLE 18, (±)-(E)-1-(3-amino-7-bromo-2,3-dihydrospiro[indene-1,4′-piperidine]-1′-yl)-3-(2-(trifluoromethyl)phenyl)prop-2-en-1-one], the IC50 is less than 0.1 µM. Under “111 nM”, this compound yielded an inhibition at 0.111 µM of 93.3%.

Regarding `CNC(=O)NC1CC2(CCN(C(=O)/C=C/c3ccccc3C(F)(F)F)CC2)c2c(Br)cccc21` (racemic) [EXAMPLE 19, (±)-(E)-1-(7-bromo-1′-(3-(2-(trifluoromethyl)phenyl)acryloyl)-2,3-dihydrospiro[indene-1,4′-piperidine]-3-yl)-3-methylurea], the IC50 is less than 0.1 µM. Besides, at 0.1 µM the inhibition (100 nM) was 98.1%.

With `NC1CC2(CCN(C(=O)Cc3ccccc3C(F)(F)F)CC2)c2c(Br)cccc21` (racemic) [EXAMPLE 46, (±)-1-(3-amino-7-bromo-2,3-dihydrospiro[indene-1,4′-piperidine]-1′-yl)-2-(2-(trifluoromethyl)phenyl)ethanone], the IC50 is less than 0.1 µM. For the setting “111 nM”, this compound came in with an inhibition at 0.111 µM of 78.6%.

Take `O=C(O)CC1CC2(CCN(C(=O)CCc3ccccc3C(F)(F)F)CC2)c2c(Br)cccc21` (single isomer, unassigned) [EXAMPLE 70.1]: the IC50 was less than 0.1 µM. Besides, testing at 0.111 µM (111 nM) gave an inhibition of 97.6%.

`O=C(O)CC1CC2(CCN(C(=O)CCc3ccccc3C(F)(F)F)CC2)c2c(Br)cccc21` (single isomer, unassigned) [EXAMPLE 70.2]: the IC50 is less than 0.1 µM. The inhibition at 0.1 µM (100 nM) was 95.7%. In addition, where the note is “111 nM, 0.111 µM”, the “Average % inhibition at 111 nM” value is listed as 99.2%.

Take `O=C(O)CC1CC2(CCN(C(=O)/C=C/c3ccccc3C(F)(F)F)CC2)c2c(Br)cccc21` (single isomer, unassigned; isomer 1) [EXAMPLE 2.1, (±)-(E)-2-(7-bromo-1′-(3-(2-(trifluoromethyl)phenyl)acryloyl)-2,3-dihydrospiro[indene-1,4′-piperidine]-3-yl)acetic acid isomer 1]: the IC50 was less than 0.1 µM. This compound also showed an inhibition at 0.1 µM (100 nM) of 96.6%.

In the case of `O=C(O)CC1CC2(CCN(C(=O)/C=C/c3ccccc3C(F)(F)F)CC2)c2c(Br)cccc21` (single isomer, unassigned; isomer 2) [EXAMPLE 2.2, (E)-2-(7-bromo-1′-(3-(2-(trifluoromethyl)phenyl)acryloyl)-2,3-dihydrospiro[indene-1,4′-piperidine]-3-yl)acetic acid isomer 2], the IC50 is less than 0.1 µM. For the same compound, the “Average % inhibition at 100 nM” value (100 nM, 0.1 µM) is 100.3%.

For the compound `O=C1CC2(CCN(C(=O)/C=C/c3ccccc3C(F)(F)F)CC2)c2c(Br)cccc21` [EXAMPLE 15, (E)-7-bromo-1′-(3-(2-(trifluoromethyl)phenyl)acryloyl)spiro[indene-1,4′-piperidin]-3(2H)-one], the IC50 is less than 0.1 µM. The compound also yielded an inhibition at 0.1 µM (100 nM) of 95.3%. The compound further had an inhibition at 0.111 µM (111 nM) of 92.6%.

Regarding `O=C1CC2(CCN(C(=O)/C=C/c3c(Cl)cccc3Cl)CC2)c2c(Br)cccc21` [EXAMPLE 17, (E)-7-bromo-1′-(3-(2,6-dichlorophenyl)acryloyl)spiro[indene-1,4′-piperidin]-3(2H)-one], the IC50 is less than 0.1 µM. The inhibition at 0.111 µM (111 nM) came out at 81.2%.

As to `CC(C)(C)OC(=O)N1Cc2ccccc2C2(CCN(C(=O)/C=C/c3ccccc3C(F)(F)F)CC2)C1` [EXAMPLE 20, (E)-tert-butyl 1′-(3-(2-(trifluoromethyl)phenyl)acryloyl)-1H-spiro[isoquinoline-4,4′-piperidine]-2(3H)-carboxylate], the IC50 was less than 0.1 µM. Under “111 nM”, this compound had an inhibition at 0.111 µM of 29%.

As to `O=C(/C=C/c1ccccc1C(F)(F)F)N1CCC2(CC1)CNCc1ccccc12` [EXAMPLE 21, (E)-1-(2,3-dihydro-1H-spiro[isoquinoline-4,4′-piperidine]-1′-yl)-3-(2-(trifluoromethyl)phenyl)prop-2-en-1-one], the IC50 was less than 0.1 µM. Further, the inhibition at 0.111 µM (111 nM) is 87.4%.

As for `CS(=O)(=O)N1Cc2ccccc2C2(CCN(C(=O)/C=C/c3ccccc3C(F)(F)F)CC2)C1` [EXAMPLE 22, (E)-1-(2-(methylsulfonyl)-2,3-dihydro-1H-spiro[isoquinoline-4,4′-piperidine]-1′-yl)-3-(2-(trifluoromethyl)phenyl)prop-2-en-1-one], the IC50 is less than 0.1 µM. This compound came in with an inhibition at 0.111 µM (111 nM) of 95.3%.

For the compound `CC(=O)N1Cc2ccccc2C2(CCN(C(=O)/C=C/c3ccccc3C(F)(F)F)CC2)C1` [EXAMPLE 23, (E)-1-(2-acetyl-2,3-dihydro-1H-spiro[isoquinoline-4,4′-piperidine]-1′-yl)-3-(2-(trifluoromethyl)phenyl)prop-2-en-1-one], the IC50 is less than 0.1 µM. This compound also displayed an inhibition at 0.111 µM (111 nM) of 94.9%.

Turning to `CN1C(=O)c2ccccc2C12CCN(C(=O)/C=C/c1ccccc1C(F)(F)F)CC2` [EXAMPLE 24, (E)-2-methyl-1′-(3-(2-(trifluoromethyl)phenyl)acryloyl)spiro[isoindoline-1,4′-piperidin]-3-one], the concentration for half-maximal inhibition (IC50) is less than 0.1 µM. This compound also yielded an inhibition at 0.111 µM (111 nM) of 82.3%.

Turning to `CN1C(=O)c2cccc(Cl)c2C12CCN(C(=O)/C=C/c1ccccc1C(F)(F)F)CC2` [EXAMPLE 25, (E)-7-chloro-2-methyl-1′-(3-(2-(trifluoromethyl)phenyl)acryloyl)spiro[isoindoline-1,4′-piperidin]-3-one], the IC50 was less than 0.1 µM. Besides, at 0.1 µM the inhibition (100 nM) was 95.5%. Moreover, under “111 nM”, the inhibition at 0.111 µM was found to be 95.3%.

For the compound `CN1C(=O)c2cccc(Cl)c2C12CCN(C(=O)/C=C/c1c(Cl)cccc1Cl)CC2` [EXAMPLE 26, (E)-7-chloro-1′-(3-(2,6-dichlorophenyl)acryloyl)-2-methylspiro[isoindoline-1,4′-piperidin]-3-one], the IC50 was less than 0.1 µM. For the same compound, testing at 0.111 µM (111 nM) gave an inhibition of 79%.

For the compound `O=C1NC2(CCN(C(=O)/C=C/c3ccccc3C(F)(F)F)CC2)c2c(Cl)cccc21` [EXAMPLE 27, (E)-7-chloro-1′-(3-(2-(trifluoromethyl)phenyl)acryloyl)spiro[isoindoline-1,4′-piperidin]-3-one], the IC50 was less than 0.1 µM. The compound also returned an inhibition at 0.111 µM (111 nM) of 89.8%.

For the compound `O=C1NC2(CCN(C(=O)/C=C/c3ccccc3C(F)(F)F)CC2)c2c(Br)cccc21` [EXAMPLE 28, (E)-7-bromo-1′-(3-(2-(trifluoromethyl)phenyl)acryloyl)spiro[isoindoline-1,4′-piperidin]-3-one], the IC50 is less than 0.1 µM. The compound further registered an inhibition at 0.111 µM (111 nM) of 92.7%.

In the case of `O=C1NC2(CCN(C(=O)/C=C/c3ccccc3C(F)(F)F)CC2)c2c(Cl)cc(Cl)cc21` [EXAMPLE 29, (E)-5,7-dichloro-1′-(3-(2-(trifluoromethyl)phenyl)acryloyl)spiro[isoindoline-1,4′-piperidin]-3-one], the IC50 is less than 0.1 µM. The compound further registered an inhibition at 0.111 µM (111 nM) of 94.2%.

(Values after US8383629B2, “Inhibitors of 11β-hydroxysteroid dehydrogenase type 1” (Vitae Pharmaceuticals, Inc., priority 2008, dated 2013).)
